Activity calls are given as the source filed them. The rule behind the calls is not given here.
Experiments:
[1] = Selectivity index, ratio of IC50 for human MRC5 cells to IC50 for human U87-TxR cells; type: toxicity; conditions: MRC5 cells versus U87-TxR cells, read-out: Ratio IC50
[2] = Selectivity index, ratio of IC50 for human MRC5 cells to IC50 for human U87 cells; type: toxicity; conditions: MRC5 cells versus U87 cells, read-out: Ratio IC50
MRC5 = experiment: Cytotoxicity against human MRC5 cells assessed as reduction in cell viability incubated for 72 hrs by MTT assay; type: cell-based; conditions: MRC5, 72 h
[3] = biological target: T1, ATP-dependent translocase ABCB1 (Homo sapiens, UniProt P08183); experiment: Inhibition of P-gp in human U87-TxR cells assessed as increase in Rho123 accumulation at 2.5 uM measured after 72 hrs by flow cytometry; type: cell-based
[4] = Cytotoxicity against human U87-TxR cells assessed as reduction in cell viability incubated for 72 hrs by MTT assay; type: functional, cell-based
[5] = biological target: T2, Thioredoxin reductase 1, cytoplasmic (Homo sapiens) (UniProt Q16881); experiment: Inhibition of TrxR1 in human U87-TxR cells assessed as increase in RONS level at 10 uM measured after 24 hrs by dihydrorhodamine 123 dye based flow cytometry; type: cell-based
T2 sequence (whole entry): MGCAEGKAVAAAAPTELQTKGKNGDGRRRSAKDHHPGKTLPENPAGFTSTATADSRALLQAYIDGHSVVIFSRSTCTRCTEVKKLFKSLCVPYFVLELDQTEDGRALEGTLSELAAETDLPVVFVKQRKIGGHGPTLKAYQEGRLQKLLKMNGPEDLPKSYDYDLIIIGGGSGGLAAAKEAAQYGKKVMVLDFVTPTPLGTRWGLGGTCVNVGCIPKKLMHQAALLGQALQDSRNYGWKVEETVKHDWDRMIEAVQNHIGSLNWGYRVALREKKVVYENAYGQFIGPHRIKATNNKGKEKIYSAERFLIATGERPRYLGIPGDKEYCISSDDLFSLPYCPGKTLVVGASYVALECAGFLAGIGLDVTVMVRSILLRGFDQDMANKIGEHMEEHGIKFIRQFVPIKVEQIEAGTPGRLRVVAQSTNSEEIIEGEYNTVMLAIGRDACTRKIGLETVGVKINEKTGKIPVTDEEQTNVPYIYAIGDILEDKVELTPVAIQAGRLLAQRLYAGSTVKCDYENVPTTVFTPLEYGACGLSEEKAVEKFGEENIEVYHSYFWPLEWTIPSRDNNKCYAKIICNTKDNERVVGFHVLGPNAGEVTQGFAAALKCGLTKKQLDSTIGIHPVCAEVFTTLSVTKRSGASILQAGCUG

SH-SY5Y = experiment: Inhibition of TrxR in human SH-SY5Y cell lysates at 5 uM using DTNB as substrate preincubated for 15 mins followed by substrate addition and measured for 20 mins by colorimetry relative to control; type: subcellular; conditions: time 35.0 min
[6] = biological target: T1, ATP-dependent translocase ABCB1; experiment: Inhibition of P-gp in human U87-TxR cells assessed as increase in Rho123 accumulation at 5 uM measured after 30 mins by flow cytometry; type: cell-based; conditions: 0.5 h
[7] = biological target: T3, Thioredoxin reductase 1, cytoplasmic (Rattus norvegicus, UniProt O89049); experiment: Inhibition of recombinant rat TrxR1 using DTNB as substrate preincubated for 15 mins followed by substrate addition and measured for 20 mins by colorimetry
T3 sequence (O89049 whole entry): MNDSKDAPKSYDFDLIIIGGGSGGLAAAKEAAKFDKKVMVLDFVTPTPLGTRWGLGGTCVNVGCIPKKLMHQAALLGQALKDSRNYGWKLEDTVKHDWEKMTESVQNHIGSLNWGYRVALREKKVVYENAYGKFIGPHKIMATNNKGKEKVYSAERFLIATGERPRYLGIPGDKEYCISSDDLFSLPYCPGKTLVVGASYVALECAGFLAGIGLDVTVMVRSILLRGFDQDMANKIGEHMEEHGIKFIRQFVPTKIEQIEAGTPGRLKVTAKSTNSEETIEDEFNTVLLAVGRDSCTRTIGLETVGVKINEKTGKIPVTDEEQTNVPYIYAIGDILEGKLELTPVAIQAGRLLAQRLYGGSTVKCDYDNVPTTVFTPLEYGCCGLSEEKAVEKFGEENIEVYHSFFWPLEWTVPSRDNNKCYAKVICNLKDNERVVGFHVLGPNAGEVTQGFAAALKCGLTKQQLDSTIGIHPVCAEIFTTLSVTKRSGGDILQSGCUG

U-87 MG = experiment: Cytotoxicity against human U87 cells assessed as reduction in cell viability incubated for 72 hrs by MTT assay; type: functional, cell-based, U-87MG ATCC
[8] = biological target: T2, Thioredoxin reductase 1, cytoplasmic (Homo sapiens); experiment: Inhibition of TrxR1 in human U87 cells assessed as increase in RONS level at 10 uM measured after 24 hrs by dihydrorhodamine 123 dye based flow cytometry; type: cell-based
[9] = biological target: T1, ATP-dependent translocase ABCB1; experiment: Inhibition of P-gp in human U87-TxR cells assessed as increase in Rho123 accumulation measured after 30 mins by flow cytometry; type: cell-based; conditions: 0.5 h
[10] = biological target: T1, ATP-dependent translocase ABCB1; experiment: Inhibition of P-gp in human U87-TxR cells assessed as increase in Rho123 accumulation at 50 nM measured after 30 mins by flow cytometry; type: cell-based; conditions: 0.5 h, 0.05 µM

T1 sequence (P08183 whole entry): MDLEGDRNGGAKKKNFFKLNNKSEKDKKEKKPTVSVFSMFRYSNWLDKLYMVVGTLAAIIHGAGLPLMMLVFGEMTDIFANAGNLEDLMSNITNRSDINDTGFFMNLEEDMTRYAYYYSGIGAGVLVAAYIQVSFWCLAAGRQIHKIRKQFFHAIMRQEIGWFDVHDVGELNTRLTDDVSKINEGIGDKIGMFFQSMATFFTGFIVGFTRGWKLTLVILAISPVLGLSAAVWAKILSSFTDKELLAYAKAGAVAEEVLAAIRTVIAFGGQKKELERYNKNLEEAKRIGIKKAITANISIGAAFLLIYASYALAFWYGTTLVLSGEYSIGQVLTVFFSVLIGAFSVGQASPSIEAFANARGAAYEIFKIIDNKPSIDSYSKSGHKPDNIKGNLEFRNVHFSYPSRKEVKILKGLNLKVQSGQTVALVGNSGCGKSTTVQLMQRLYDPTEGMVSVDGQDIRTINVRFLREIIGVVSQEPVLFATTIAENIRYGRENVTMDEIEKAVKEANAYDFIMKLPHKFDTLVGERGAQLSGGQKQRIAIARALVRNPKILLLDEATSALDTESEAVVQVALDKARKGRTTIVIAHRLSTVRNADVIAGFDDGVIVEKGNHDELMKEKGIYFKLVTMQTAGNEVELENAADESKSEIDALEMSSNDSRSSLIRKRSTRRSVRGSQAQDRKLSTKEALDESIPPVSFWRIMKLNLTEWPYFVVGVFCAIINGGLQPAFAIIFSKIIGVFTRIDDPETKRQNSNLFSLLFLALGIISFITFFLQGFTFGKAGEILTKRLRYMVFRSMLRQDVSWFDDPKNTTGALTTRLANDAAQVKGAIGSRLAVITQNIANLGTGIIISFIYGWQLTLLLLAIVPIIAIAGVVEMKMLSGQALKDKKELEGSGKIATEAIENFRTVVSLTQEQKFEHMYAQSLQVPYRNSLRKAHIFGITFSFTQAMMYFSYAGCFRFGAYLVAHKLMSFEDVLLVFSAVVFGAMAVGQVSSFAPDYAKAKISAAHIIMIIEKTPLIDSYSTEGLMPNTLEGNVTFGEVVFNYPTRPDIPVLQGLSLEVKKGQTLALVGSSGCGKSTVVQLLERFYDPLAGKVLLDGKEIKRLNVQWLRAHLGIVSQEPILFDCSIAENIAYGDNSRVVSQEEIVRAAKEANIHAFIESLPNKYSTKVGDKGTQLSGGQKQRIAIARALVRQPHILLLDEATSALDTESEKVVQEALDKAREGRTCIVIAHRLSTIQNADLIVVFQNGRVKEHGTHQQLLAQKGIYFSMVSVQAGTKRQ

Row | Compound | inhibition (INH) [3] | inhibition [5] | inhibition (SH-SY5Y) [%] | inhibition (INH) [6] | IC50 [7] [µM] | inhibition [8] | inhibition (INH) [9] | inhibition (INH) [10] | selectivity ratio [1] | selectivity ratio [2] | IC50 (MRC5) [µM] | IC50 [4] [µM] | IC50 (U-87 MG) [µM]
1 | CN(CCOC(=O)/C=C/C(=O)c1ccc(F)cc1)C(C(=O)NC(C)(C)C)c1ccccc1F (configuration not stated) | Not Active | Active | 64 | Active | 5 |  |  |  | 2 | 2 | 14.8 | 6.14 | 8.34
2 | CCN(CCOC(=O)/C=C/C(=O)c1ccc(F)cc1)C(C(=O)NC(C)(C)C)c1cccc(C)c1 (configuration not stated) | Not Active | Active | 50.2 | Active | 3.37 | Active |  |  | 2 | 2 | 13 | 6.05 | 7.07
3 | Cc1ccc(C(=O)/C=C/C(=O)OCCN(C)C(C(=O)NC2CCCCC2)c2ccc(F)cc2)cc1 (configuration not stated) | Not Active | Active | 68.8 | Active | 37 | Active |  |  | 1.6 | 1.6 | 14.2 | 11.7 | 5.89
4 | CN(CCOC(=O)/C=C/C(=O)c1ccc(F)cc1)C(C(=O)NC(C)(C)C)c1ccc(F)cc1 (configuration not stated) |  | Active |  |  |  |  | Dose-dependent effect |  | 1.4 | 1.4 | 11.8 | 8.54 | 8.9
5 | COc1cc2c(cc1OC)CN(CCc1ccc(NC(=O)c3cc(OC)c(OC)cc3NC(=O)c3cnc4ccccc4c3)cc1)CC2 [TARIQUIDAR] |  |  |  |  |  |  |  | Active |  |  |  |  | 

Now from value to compound, other results behind:

Row | inhibition (INH) [3] | inhibition [5] | inhibition (SH-SY5Y) [%] | inhibition (INH) [6] | IC50 [7] [µM] | inhibition [8] | inhibition (INH) [9] | inhibition (INH) [10] | Compound | selectivity ratio [1] | selectivity ratio [2] | IC50 (MRC5) [µM] | IC50 [4] [µM] | IC50 (U-87 MG) [µM]
6 | Active | Active | 53 | Active | 3.2 |  |  |  | Cc1cccc(C(C(=O)NC2CCCCC2)N(C)CCOC(=O)/C=C/C(=O)c2ccc(F)cc2)c1 (configuration not stated) | 1.9 | 1.9 | 14.1 | 7.77 | 7.02
7 | Not Active |  | 84.6 | Active | 0.19 | Active |  |  | CN(CCOC(=O)/C=C/C(=O)c1ccc(F)cc1)C(C(=O)NC(C)(C)C)c1ccc(F)c(F)c1 (configuration not stated) | 2.4 | 2.4 | 17.8 | 7.74 | 7.13
8 | Not Active | Active | 82.7 | Active | 0.59 | Active |  |  | Cc1ccc(C(C(=O)NC(C)(C)C)N(C)CCOC(=O)/C=C/C(=O)c2ccc(F)cc2)cc1 (configuration not stated) | 2.2 | 2.2 | 14.2 | 6.14 | 6.96
9 | Not Active | Active | 33 | Active | 1.5 | Active |  |  | Cc1cccc(C(C(=O)NC(C)(C)C)N(C)CCOC(=O)/C=C/C(=O)c2ccc(F)cc2)c1 (configuration not stated) | 1.6 | 1.6 | 13.3 | 8.41 | 7.89

Reference: ChEMBL document CHEMBL4680197, “Further exploration of DVD-445 as a lead thioredoxin reductase (TrxR) inhibitor for cancer therapy: Optimization of potency and evaluation of anticancer potential” (Eur J Med Chem, 2020)
